In patent US20160022751A1, “NOVEL COMPOSITION FOR TREATING ALZHEIMER'S DISEASE AND IMPROVING COGNITIVE FUNCTION OF ALZHEIMER'S PATIENTS” (GANGNEUNG-WONJU NATIONAL UNIVERSITY INDUSTRY ACADEMY …, priority 2014, published 2016):

How the values were obtained:
SRA [1] = assay: SRA mRNA expression in HMO6 human microglial cells (qPCR); assay type: cell-based; details: Rg3-treated HMO6 cells (FIG. 14)
Procedure: HMO6 human microglial cell line was kindly provided by Dr. SU Kim (Chung-Ang University, Korea). HMO6 cells were grown in Dulbecco's Modified Eagle's Medium (DMEM) (Hyclone, USA) supplemented with 10% fetal bovine serum, 100 U/ml penicillin, and 100 μg/ml streptomycin (Invitrogen, USA). Cultures were maintained under 5% CO2 at 37° C. in tissue culture flasks. Cells were grown to >90% confluency and subjected to no more than 20 cell passages. Medium was changed every 2-3 days. Subconfluent cells were harvested and seeded at a density of 5×10^5 cells or 5×10^6 cells in poly-L-lysine-coated 35-mm or 60-mm culture plates. […]
(§1) Total RNA extracts from HMO6 cells or perfused brain tissue were prepared using the Trizol method (Invitrogen). cDNA was synthesized from RNA by reverse transcription of 1 μg total RNA using the Improm-II reverse transcription system (Promega, Wis., USA) and oligo dT primers in a total volume of 20 μl. […] Relative sample expression levels were calculated using Rotor-Gene 6000 Series Software 1.7 and were expressed relative to β-actin for mice or glyceraldehyde 3-phosphate dehydrogenase for HMO6 cells and corrected for between-run variability. Data for the experimental samples are expressed as a percentage of the internal control gene. […]

clathrin = assay: Clathrin mRNA expression in HMO6 human microglial cells (qPCR); assay type: cell-based; details: Aβ42 (5 μM) and/or Rg3 (2.5 or 5 μg/ml), 24 h (FIG. 15C)
Procedure: FIG. 15 is a graph showing a change in the expression of caveolin-1, caveolin-2, clathrin, neprilysin (NEP), insulin-degrading enzyme (IDE) according to treating Aβ and/or ginsenoside Rg3 to HMO6 human microglial cells. HMO6 cells were plated on 35 mm cell culture plates or chamber slides and Aβ42 (5 μM) and/or Rg3 (2.5 or 5 μg/ml) were treated for 24 h. Then, the mRNA expression was determined by quantitative RT-PCR. The expression of caveolin (A-B), clathrin (C) which are endocytosis-related genes and NEP (D) and IDE (E) which are genes encoding Aβ-degrading enzymes were compared depending on the presence or absence of Rg3/Aβ42. The results are shown as mean±SD. * P<0.05, ** P<0.01, *** P<0.001. […]
as §1

SRA [2] = assay: In vivo SRA protein expression in brain tissues (western blot); details: mice administrated with Rg3 (FIG. 24B)
Source text: HMO6 cells were lysed in 1% RIPA buffer containing protease and phosphatase inhibitors (Roche, Mannheim, Germany) and whole-cell lysates were separated on 10% sodium dodecyl sulfate-polyacrylamide gel electrophoresis. After electrophoresis, the proteins were transferred to polyvinylidene fluoride membranes, and the membranes were blocked with 5% skim milk in Tris-buffered saline solution containing 0.1% Tween-20. The membranes were then immunoblotted with primary antibodies, anti-phospho-p38, anti-p38, anti-phospho-ERK, anti-ERK, and anti-f3-actin (Santa Cruz Biotechnology, USA), followed by incubation with horseradish peroxidase-conjugated anti-rabbit or anti-mouse secondary antibodies (Stressgen, USA). Blots were developed using an enhanced chemiluminescent solution (Thermo, USA).
The present inventor investigated whether ginsenoside Rg3 translocated to brain tissues contributes to the uptake and degradation of Aβ42 in order to determine whether in vitro experimental results described in the Example 5 can be applied to in vivo condition in the same manner. Specifically, the expression level of SRA and SRB gene within brain tissues of mice administrated with Rg3 was determined using the RT-PCR analysis described in the Example 5-4 (FIG. 24A) and the western blot analysis described in the Example 5-6 (FIG. 24B). […]

CC(C)=CCC[C@](C)(O)[C@H]1CC[C@]2(C)[C@@H]1[C@H](O)C[C@@H]1[C@@]3(C)CC[C@H](O[C@@H]4O[C@H](CO)[C@@H](O)[C@H](O)[C@H]4O[C@@H]4O[C@H](CO)[C@@H](O)[C@H](O)[C@H]4O)C(C)(C)[C@@H]3CC[C@]12C [ginsenoside Rg3]
SRA mRNA expression (SRA [1]): dose-dependently increased
clathrin-mediated Aβ42 endocytosis (clathrin mRNA) (clathrin): promoted Aβ42 uptake into HMO6 cells via a caveolin1 and clathrin-mediated endocytic mechanism
expression of SRA protein in brain tissues (SRA [2]): increased
